Eight molecules from ChEMBL document CHEMBL2163198, “Substituent effects on desferrithiocin and desferrithiocin analogue iron-clearing and toxicity profiles” (J Med Chem, 2012) can be followed below.

A short description of series [1]: Octanol-water apparent partition coefficient, log D of the compound at pH 7.4. Type of series: physicochemical. To be noted: for logD: read-out: LogD7.4.
For series [2], the system named is Sapajus apella. As to the kind of experiment: Iron excretion in iron-overloaded Cebus apella feces at 75 umol/kg, po after 48 hrs by flame absorption spectroscopy analysis relative to control. It is filed as functional.
Series [3] deals with Sapajus apella. As to the kind of experiment: Iron excretion in iron-overloaded Cebus apella urine at 75 umol/kg, po after 48 hrs by flame absorption spectroscopy analysis relative to control. Type of series: functional.
Series [4] relates to Rattus norvegicus. Briefly: Iron clearing effect in noniron-overloaded bile duct cannulated Sprague-Dawley rat assessed as maximum iron clearance time at 300 umol/kg, po. It is filed as functional.
For series [5], the system named is Rattus norvegicus. Type of series: toxicity, organism-based. To be noted: in vivo, po, 168 h.
The subject of series [6] is Rattus norvegicus. Briefly: Iron excretion in noniron-overloaded bile duct cannulated Sprague-Dawley rat urine at 300 umol/kg, po after 48 hrs relative to control. Type of series: functional.
Series [7] relates to Rattus norvegicus. As to the kind of experiment: Iron clearing effect in noniron-overloaded bile duct cannulated Sprague-Dawley rat at 300 umol/kg, po after 48 hrs. It is filed as functional.
In series [8] the test system is Sapajus apella. Briefly: Iron clearing effect in iron-overloaded Cebus apella at 75 umol/kg, po after 48 hrs by flame absorption spectroscopy analysis. It is filed as functional.
Series [9] has as its system Rattus norvegicus. Briefly: Toxicity in rat assessed as mortality at 384 umol/kg, po qd for 10 days. It is filed as organism-based. To be noted: in vivo, 240 h.
Series [10] concerns Rattus norvegicus. As to the kind of experiment: Iron excretion in noniron-overloaded bile duct cannulated Sprague-Dawley rat bile at 300 umol/kg, po after 48 hrs relative to control. It is filed as functional.
Series [11] deals with Sapajus apella. Briefly: Iron excretion in iron-overloaded Cebus apella feces at 150 umol/kg, po after 48 hrs by flame absorption spectroscopy analysis relative to control. Type of series: functional.
Series [12] has as its system Sapajus apella. As to the kind of experiment: Iron excretion in iron-overloaded Cebus apella urine at 150 umol/kg, po after 48 hrs by flame absorption spectroscopy analysis relative to control. Type of series: functional.
The test system of series [13] is Sapajus apella. As to the kind of experiment: Iron clearing effect in iron-overloaded Cebus apella at 150 umol/kg, po after 48 hrs by flame absorption spectroscopy analysis. It is filed as functional.
Series [14] relates to Rattus norvegicus. It is filed as toxicity, organism-based, Urine. To be noted: in vivo, po, 168 h.
Series [15] concerns Rattus norvegicus. Briefly: Iron clearing effect in noniron-overloaded bile duct cannulated Sprague-Dawley rat assessed as maximum iron clearance time at 150 umol/kg, po. Type of series: functional.
Series [16] has as its system Rattus norvegicus. As to the kind of experiment: Iron clearing effect in noniron-overloaded bile duct cannulated Sprague-Dawley rat at 150 umol/kg, po after 24 hrs. Type of series: functional.
Series [17] relates to Rattus norvegicus. As to the kind of experiment: Iron excretion in noniron-overloaded bile duct cannulated Sprague-Dawley rat urine at 150 umol/kg, po after 24 hrs relative to control. It is filed as functional.
Series [18] relates to Rattus norvegicus. Briefly: Iron excretion in noniron-overloaded bile duct cannulated Sprague-Dawley rat bile at 150 umol/kg, po after 24 hrs relative to control. It is filed as functional.
The subject of series [19] is Sapajus apella. As to the kind of experiment: Iron excretion in iron-overloaded Cebus apella urine at 75 umol/kg, sc after 48 hrs by flame absorption spectroscopy analysis relative to control. It is filed as functional.
The subject of series [20] is Sapajus apella. Briefly: Iron excretion in iron-overloaded Cebus apella feces at 75 umol/kg, sc after 48 hrs by flame absorption spectroscopy analysis relative to control. Type of series: functional.
Series [21] concerns Rattus norvegicus. It is filed as toxicity, organism-based, Blood. To be noted: in vivo, po, 168 h.
Series [22] has as its system Rattus norvegicus. Type of series: toxicity, organism-based, Serum. To be noted: in vivo, po, 168 h.
Series [23] concerns Rattus norvegicus. Type of series: toxicity, organism-based, Urine. To be noted: in vivo, po, 168 h. This is another data set of the same source.

With `COCCOCCOc1cnc(C2=N[C@@](C)(C(=O)[O-])CS2)c(O)c1.[Na+]`, the logD in series [1] is -1.59. Besides, the results for the Activity in the series on Sapajus apella [2], with Sapajus apella [3] and in the series with Rattus norvegicus [5] were 63%, 37% and “Non-toxic”, respectively. The Time in the series with Rattus norvegicus [4] came out at 6 h.
`COCCOCCOc1ccc(C2=N[C@@](C)(C(=O)[O-])CS2)c(O)c1.[Na+]`: in [1], the LogD7.4 is -0.89. Also, the Activity is 83% with Sapajus apella [2]; 17% with Sapajus apella [3]; 3% with Rattus norvegicus [6]; 26.7% in the series on Rattus norvegicus [7]; 28.7% in the series on Sapajus apella [8]; “Non-toxic” with Rattus norvegicus [5]. The Activity result in the series on Rattus norvegicus [9] was “Non-toxic”; in the series with Rattus norvegicus [10] it was 97%. The Time with Rattus norvegicus [4] came out at 12 h.
With `COCCOCCOc1cccc(C2=N[C@@](C)(C(=O)[O-])CS2)c1O.[Na+]`, in series [1], the logD was -0.96. Besides, the Activity in the series with Sapajus apella [2] turned out to be 86%; in the series with Sapajus apella [3], 14%; in the series on Rattus norvegicus [6] it was 1%; in the series on Rattus norvegicus [7], 15.1%; in the series on Sapajus apella [8] it was 22.5%; in the series on Rattus norvegicus [10], 99%. The Time in the series with Rattus norvegicus [4] was found to be 6 h.
With `C[C@]1(C(=O)[O-])CSC(c2ccc(O)cc2O)=N1.[Na+]` [DEFERITRIN SODIUM], the Activity in the series on Sapajus apella [11] is recorded as 88%; with Sapajus apella [12] it was 12%; in the series with Sapajus apella [13] it was 16.8%; in the series with Rattus norvegicus [5], “Non-toxic”; in the series on Rattus norvegicus [14] it was 69 ng/kg/day. Moreover, in the series with Rattus norvegicus [4], the Time was 3 h.
On to `C[C@]1(C(=O)[O-])CSC(c2ccccc2O)=N1.[Na+]`, for which the Time in the series on Rattus norvegicus [15] is 6 h. For the same molecule, the Activity with Sapajus apella [2] is listed as 76%; in the series with Sapajus apella [3], 24%; in the series on Rattus norvegicus [16] it was 2.7%; with Rattus norvegicus [17], 0%; in the series on Rattus norvegicus [18], 100%; in the series with Sapajus apella [8] it was 21.5%.
Take `COCCOCCOc1ccnc(C2=N[C@@](C)(C(=O)[O-])CS2)c1O.[Na+]`: the logD in series [1] was -1.38. In addition, the Activity in the series with Sapajus apella [2] is 40%; with Sapajus apella [3], 60%; with Sapajus apella [19], 36%; in the series on Rattus norvegicus [5], “Non-toxic”; in the series on Sapajus apella [20] it was 64%. Moreover, in the series on Rattus norvegicus [4], the Time was determined as 6 h.
For `C[C@]1(C(=O)[O-])CSC(c2ncc(O)cc2O)=N1.[Na+]`, in series [1], the logD is -1.68. The Activity in the series on Sapajus apella [2] was 58%; in the series with Sapajus apella [3] it was 42%; in the series with Sapajus apella [8], 10%; with Rattus norvegicus [5] it was “Non-toxic”. In addition, the Time with Rattus norvegicus [4] amounted to 6 h.
As to `C[C@]1(C(=O)[O-])CSC(c2ncccc2O)=N1.[Na+]` [DESFERRITHIOCIN SODIUM], the Time in the series on Rattus norvegicus [15] came to 3 h. The Activity in the series on Rattus norvegicus [21] turned out to be 139 mg/dL; with Sapajus apella [11], 78%; with Rattus norvegicus [16], 5.5%; with Rattus norvegicus [22] it was 5.1 mg/dL; with Sapajus apella [12], 22%; in the series on Sapajus apella [13], 16.1%. For the same molecule, the Activity with Rattus norvegicus [17] was 7%; in the series on Rattus norvegicus [18], 93%; with Rattus norvegicus [5], “Toxic”; in the series on Rattus norvegicus [14], 1528 ng/kg/day; in the series on Rattus norvegicus [23], 192 ng/kg/day.
